The test has as its system cultured murine melanocytes (melan-a). Kind of test: Melanin assay in cultured murine melanocytes (melan-a) screened with library compounds. The format is cell-based. The settings on record: melan-a cells, 72 hours of incubation. The method, then:
The Spectrum Collection library consisting of 2000 drug compounds or natural products represents a source for the identification of compounds useful in the present invention. The library may be screened to identify novel pigmentation inhibitors in cultured murine melanocytes (melan-a). Compounds are dissolved in dimethylsulfoxide (DMSO) to a final concentration of 10 mM. Screening is performed with cultured melanocytes in 24-well plates followed by melanin assay (see below). A minimum change of 50% in melanin formation is established as significant for a pigmentation inhibitor. DMSO may be used as a negative control and the widely used depigmenting agent, hydroquinone, may be used as a positive control on every plate. Primary screening is performed at a final concentration of 1 μM and potential candidates from the primary screening are reconfirmed in duplicate at final concentrations of 1 and 5 μM.
Melan-a cells are plated at 5×10^4 cells per well in 1 ml of culture media in 24-well plates the day before adding the library compounds. All compounds are added at the indicated final concentrations. Cells are harvested after 72 hours of incubation, and the melanin assay is performed.
For further test and mechanism of action studies, the compounds may be purchased from Sigma, MicroSource or other known suppliers. The compounds are dissolved in dimethylsulfoxide (DMSO) to a final concentration of 10 mM, and are tested for their effect on melanin synthesis at the indicated final concentrations.
For the primary and secondary screening, cells were harvested and dissolved in 200 μl of 2N NaOH in 20% DMSO at 70° C. A 180-μl aliquot of the resulting solution was measured for absorbance at 490 nm.
Cells are harvested in extraction buffer (1% Triton X-100, 50 mM Tris, 2 mM EDTA, 150 mM NaCl, pH 7.5) containing a complete protease inhibitor cocktail (Roche). The lysates were centrifuged at 14,000 rpm for 10 minutes at 4° C. BCA protein assay kit (Pierce) was used to measure the protein concentrations of the supernatants, and bovine serum albumin was used as a standard. The remaining pellets were incubated with 100 μl ethanol-ether (1:1) for 10 minutes at room temperature. After removing the ethanol-ether, the pellets were dissolved in 200 μl of 2N NaOH in 20% DMSO at 70° C. A 180-μl aliquot of the resulting solution was measured for absorbance at 490 nm. The melanin contents were normalized to the total amount of protein.

Each structure is given as a SMILES string.

Take `CC(C)(OC(=O)c1ccccc1)[C@@H]1Cc2cc3ccc(=O)oc3cc2O1` [compound 36]: the activity at 1 µM (Mus musculus, Melan-a, 72 h, 1 μM, read-out: % of control melanin remaining after treatment @ 1 μM) turned out to be 81%. Further, the activity at 5 µM (Mus musculus, Melan-a, 72 h, 5 μM, read-out: % of control melanin remaining after treatment @ 5 μM) came out at 87%.

For the molecule `COc1c(C(C)C)oc2cc3oc(=O)ccc3cc12` [compound 40], the “% of control melanin remaining after treatment @ 1 μM” value (1 μM) stood at 97%. Also, where the note is “5 μM”, the “% of control melanin remaining after treatment @ 5 μM” value turned out to be 88%.

These data come from patent US8772252B2, “Coumarin compounds as melanogenesis modifiers and uses thereof” (New York University, priority 2011, dated 2014).
